# Results from article PMC8958510 (Journal of Medicinal Chemistry, 2022).
# Legend:
# recombinant mouse AChE = molecular target: T1, recombinant mouse AChE (Mus musculus, UniProt P21836); assay: Mouse acetylcholinesterase inhibition, Ellman's method; format: biochemical
# T1 construct: purchased Bio-Techne, Milan, Italy
# T1 sequence (P21836 32-614): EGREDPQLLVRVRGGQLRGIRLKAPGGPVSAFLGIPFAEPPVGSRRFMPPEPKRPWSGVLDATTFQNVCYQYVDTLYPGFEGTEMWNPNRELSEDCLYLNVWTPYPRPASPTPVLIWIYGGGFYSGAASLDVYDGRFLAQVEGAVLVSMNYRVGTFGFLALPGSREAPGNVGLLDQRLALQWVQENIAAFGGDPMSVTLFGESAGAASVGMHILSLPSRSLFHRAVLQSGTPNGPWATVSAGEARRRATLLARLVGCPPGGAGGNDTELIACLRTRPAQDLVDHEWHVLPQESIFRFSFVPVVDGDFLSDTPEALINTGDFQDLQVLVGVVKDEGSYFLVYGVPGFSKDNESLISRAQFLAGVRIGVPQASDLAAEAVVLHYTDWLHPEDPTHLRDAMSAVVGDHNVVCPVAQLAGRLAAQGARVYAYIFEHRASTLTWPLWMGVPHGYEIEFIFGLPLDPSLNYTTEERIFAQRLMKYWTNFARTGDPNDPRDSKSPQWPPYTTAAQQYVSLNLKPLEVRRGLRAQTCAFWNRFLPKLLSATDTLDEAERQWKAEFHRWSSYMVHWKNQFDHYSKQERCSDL
# Experimental: Human and mouse acetylcholinesterase and human butyrylcholinesterase inhibition
# assay. The inhibitory activity of the target compounds toward recombinant human AChE
# (Sigma-Aldrich, Milan, Italy), recombinant mouse AChE (Bio-Techne, Milan, Italy) and
# human serum BChE (Sigma-Aldrich, Milan, Italy) was assessed by Ellman’s method,8 using
# Stock solutions of the AChEs were prepared by
# dissolving enzyme lyophilized powder (hAChE) or diluting the enzyme commercial solution
# (mAChE) in 0.1 M potassium phosphate (pH 8.0) containing 0.1% Triton X-100, whereas the
# stock solution of hBChE was prepared in 0.1% aq. gelatin and the stock solutions of the
# compounds to be tested were made in MeOH (2-4 mM). The assay solution consisted of 0.02
# unit mL‒1 of the enzyme, 340 M 5,5’-dithiobis(2-nitrobenzoic acid), and 550 M of the
# substrate acetylthiocholine iodide (for AChE assay) or butyrylthiocholine iodide (for BChE
# assay) in 0.1 M potassium phosphate (pH 8.0). Blank solutions containing all components
# except the enzymes were prepared to account for the non-enzymatic hydrolysis of the
# Prior the addition of the substrate, the assay solutions were incubated at 37 °C for 20 min.
# After the addition of the substrate, cuvettes were rapidly transferred into a Jasco V-530
# double beam spectrophotometer equipped with thermostated cuvette holders (37 °C), in order
# for 240 s. For each tested compound, five increasing concentrations were assayed in order to
# achieve inhibition percentages of 20‒80%. Each concentration was assayed in triplicate. IC50
# values were calculated from the inhibition plot (% inhibition vs log[inhibitor]) and are
# expressed as mean ± SEM. Each IC50 value is the average of at least two experiments, each
# SAMP8 mice = assay: Novel object recognition test (NORT) in SAMP8 mice; format: in vivo, mouse; conditions: 2 mg kg^–1 day^–1 oral, 4 weeks, vs vehicle-treated
# Source text: In Vivo Proof-of-Concept of the Dual sEH / AChE Inhibitor […] in SAMP8 Mice Animals and treatment. The senescence-accelerated mouse-prone 8 (SAMP8) is an accelerated aging model established through phenotypic selection from AKR/J mice by […]
# abnormal APP and β-amyloid processing and tau pathology, among others. Likewise, SAMP8 […]
# and oxidative stress markers are present at early ages and during adultness.15 In this work, 5-month-old male SAMP8 mice were used to perform behavioral and molecular analyses.
# Animals were randomly divided into SAMP8 control (n=8) and SAMP8 treated with 12c […]
# (n=8, 2 mg kg‒1 day‒1). The animals had free access to food and water and were kept under standard temperature conditions (22 ± 2 °C) and 12-h/12-h light/dark cycles (300 lux/0 lux).
# Compound 12c was dissolved in 1.8% (2-hydroxypropyl)-β-cyclodextrin (Sigma-Aldrich, St.
# Louis, MO) and administered through drinking water for 4 weeks (Figure S6 of the Supporting Information). Control groups received water plus 1.8% (2-hydroxypropyl)-β-cyclodextrin during the treatment period. […]
# had been replaced by a novel one. The behavior was recorded, and the time that the mice spent exploring the new object (TN) and the old one (TO) were measured manually. […]
# The discrimination index (DI) was calculated as (TN‒TO)/(TN+TO). […]
smiles,measurement,setting,value
"O=C(Nc1ccc(OC(F)(F)F)cc1)NC1CCN(C(=O)CCCCNc2c3c(nc4cc(Cl)ccc24)CCCC3)CC1 [12c, 1-{1-{5-[(6-Chloro-1,2,3,4-tetrahydroacridin-9-yl)amino]pentanoyl}piperidin-4-yl}-3-[4-(trifluoromethoxy)phenyl]urea]",mAChE potency relative to 6-chlorotacrine,recombinant mouse AChE,5 fold
same,potency toward mAChE relative to hAChE,recombinant mouse AChE,3 fold
same,IC50,"recombinant mouse AChE; recombinant mouse AChE, mean ± SEM, read-out: mAChE IC50",4.12 ± 0.23 nM
same,short-term working memory (NORT discrimination index),SAMP8 mice; 2 h retention,significantly ameliorated
same,long-term working memory (NORT discrimination index),SAMP8 mice; 24 h retention,significantly ameliorated
